# ChEMBL document CHEMBL3507680, “University of Dundee, Gates Library screen for HepG2 cell viability”
# Test: Human HepG2 cell viability assay in 384 well format
# Type: toxicity, cell-based
# Design: dose 125 nL, time 70.5 hour; concentration not given beside the values
# Settings: HepG2 cells, read-out: Inhibition
row,Structure (SMILES),cytotoxicity at 70.5 h [%]
1,CCc1ccc(C(=O)N2CCN(CC(C)O)CC2)o1 (configuration not stated),2.04
2,COCCNC(=O)Cn1cc2c(n1)c(C)nn2C(C)C,-5.84
3,CCN1CCC(CNC(=O)c2cc(Cl)c[nH]2)CC1,-8.09
4,Cc1csc(N2CCCN(C(=O)c3c(C)oc(C)c3C)CC2)n1,-1.91
5,Cc1csc(CCCNC(=O)[C@H]2CNC[C@@H](C(=O)N3CCCC3)C2)n1,-9.44
6,O=C(C1CNCCO1)N1CCCC(c2ccccc2)(c2ccccc2)C1 (configuration not stated),-0.462
7,COCCC(=O)N1CCC(c2ncncc2-c2ccnc(N)c2)C1 (configuration not stated),-3.28
8,O=C(CO)N1CCCC(N2CCN(c3ccccc3F)CC2)C1 (configuration not stated),-0.739
9,COCCN(Cc1ccoc1)C(=O)c1ccc(Cl)s1,-6.8
10,Clc1cnccc1NCc1cccc(COC2CCOCC2)c1,-0.494
11,COc1cccc(-c2n[nH]cc2C(=O)NC(C)c2n[nH]c(C)n2)c1 (configuration not stated),13.9
12,O=C(CCn1ccnc1)N1CCC(c2nnc(-c3ccccn3)o2)CC1,-3.21
13,COCCn1cncc1CN1CCCC(C)(c2ccccc2)C1 (configuration not stated),18
14,CCn1cc(NC(=O)C2CCN(CC(=O)NCC(C)C)CC2)cn1,-5.15
15,CN(Cc1cc2n(n1)CCCNC2)Cc1ccno1,-5.8
16,Cc1[nH]ncc1CCCNC(=O)Nc1ccc(C#N)cc1,-4.85
17,O=C(NCc1cccnc1-n1cncn1)c1cncc(Br)c1,0.0598
18,Fc1ccc(CN2CCC(F)(F)C3(CCN(c4cnccn4)C3)C2)cc1 (configuration not stated),-9.88
19,Cc1ccccc1-n1c(O)cc(C)c(C#N)c1=O,-1.83
20,O=S(=O)(c1cccc(F)c1)N1C[C@@H]2COC[C@]2(COCC2CC2)C1,4.21
21,CCCC(C)(C)NC(=O)c1ccc(CC2CC(=O)NC2=O)cc1 (configuration not stated),0.713
22,CNc1ccc(CC2CCCN(C(=O)c3c(C)noc3C)C2)nn1 (configuration not stated),-13.8
23,Cc1ccc2ncnc(N3CCOCC3c3c(C)nn(C)c3C)c2c1 (configuration not stated),-11.7

row,Structure (SMILES),cytotoxicity at 70.5 h [%]
1,Clc1cccc(-c2cccc(N3CCC(NC4CCOCC4)CC3)c2)c1,5.92
2,CCN(Cc1cccc(-c2ccncc2)c1)S(C)(=O)=O,-4.62
3,COc1ccc(CN2CCOC(CCc3ccnc(N)c3)C2)cc1 (configuration not stated),-0.852
4,CCN(CC)C(=O)C1CCN(c2ccc(Cl)cc2C#N)CC1,10.1
5,COCc1ccccc1C(=O)N1CCCC(n2nc(C)cc2C)C1 (configuration not stated),24.9
6,COCCC(=O)N1CCCCC1c1ccc(F)cc1 (configuration not stated),5.22
7,COCC(C)NC(=O)c1nnn(-c2ccc(Br)cc2)n1 (configuration not stated),10.9
8,O=C(N[C@@H]1CN[C@H]2CCCO[C@H]21)c1cnccn1,-0.404
9,COc1ccc(CNC[C@H]2COCc3nc4cccnc4n32)cc1,-4.57
10,Cc1nnc(NC(=O)NCc2ccc(OC3CCCC3)nc2)s1,1.95
11,CN(Cc1ccccc1)C(=O)CCN1C[C@H](C2CC2)[C@@H](N(C)C)C1,-10.8
12,CC(C)CN1C[C@@H]2C(=O)N(C)C3(CCN(C(=O)C(C)C)CC3)[C@@H]2C1,-6.33
13,Cn1cc(CN2Cc3c(cnn3C)C(COCC3CC3)C2)cn1 (configuration not stated),26
14,Cc1cccc(C(C)(C)CNC(=O)CN(C)S(=O)(=O)c2cccnc2)c1,-15.3
15,CN(CCCOc1ccccc1)Cc1nc2c(cnn2C)c(=O)[nH]1,-1.06
16,CN(Cc1ccco1)C[C@@H]1OC[C@H]2CN(Cc3nccs3)CC[C@H]21,4.46
17,CN1CCN(c2cc(CNC(=O)Cn3cccn3)ccn2)CC1,13.6
18,CCCNC(=O)CCNC(=O)c1sc2ccc(F)cc2c1C,31.9
19,Cc1cnn(CC(C)NCc2nc(-c3ccsc3)oc2C)c1 (configuration not stated),-8.91
20,CC(C)C(=O)N1CCc2nc(C(=O)Nc3cccnc3)sc2CC1,-2.65
21,O=C(C1CC1)N1CCc2c(ncnc2N2CCN3CCCC3C2)C1 (configuration not stated),26
22,O=C(NC1CC1)C1CCCN(c2cc(-n3cncn3)ncn2)C1 (configuration not stated),13.5
23,CN(Cc1ccsc1)C(=O)COC(=O)c1cc(Cl)c[nH]1,-2.89

row,Structure (SMILES),cytotoxicity at 70.5 h [%]
1,c1ccc(C2(NCC3CNc4ccnn4C3)CCC2)cc1 (configuration not stated),-2.65
2,NC(=O)CN(Cc1ncc(-c2ccccc2)o1)C1CCCC1,-7.44
3,Cn1cccc1-c1nnc(C2(c3ccc4c(c3)OCO4)CCOCC2)o1,-9.42
4,CCN1CC[C@@]2(C(=O)N3CCOCC3)CCN(C(=O)C(C)C)CC[C@@H]12,18.4
5,O=C1N(C2CCOCC2)CCCC12CCN(c1ncccc1Cl)C2 (configuration not stated),-14.5
6,CN(C)C(=O)NC1COC2(CCN(C(=O)Nc3ccccc3)CC2)C1 (configuration not stated),7.49
7,Cc1ccc(CN2CCN(c3ncccc3C(N)=O)CC2CCO)cc1 (configuration not stated),-2.3
8,CNc1cccc(C2CCCN(C(=O)c3cnccn3)C2)n1 (configuration not stated),-0.4
9,O=C(c1cc(-n2cccc2)ccc1Cl)N1CCC2(CC1)OCCO2,2.22
10,Cn1ccnc1C1CCCN(C(=O)c2cc(F)cc(F)c2)C1 (configuration not stated),-6.29
11,CC(=O)N1CCC2(CC1)c1ncc(-c3cccnc3)n1CCN2C,0.401
12,O=C(Cc1csc(-c2ccco2)n1)N1CCCC1Cn1cccn1 (configuration not stated),-7.55
13,O=C(c1ccc2c(c1)OCO2)N1CCCC(n2ccnc2)C1 (configuration not stated),10.2
14,O=C(O)c1ccc2c(c1)C1(CCCCC1)CN2C(=O)c1cccc(F)c1,8.94
15,COc1cccc(C(=O)NCC2CCN(C(=O)c3ccoc3)CC2)c1,-3.78
16,CC(=O)N1CCC[C@@H](NCc2cccc(F)c2)[C@@H]1c1ccc(C)s1,-6.03
17,NC(=O)C1CN(C(=O)Nc2ccccc2SC(F)(F)F)CCO1 (configuration not stated),-10.6
18,CCc1n[nH]c(C2CN(CCc3cccs3)CCO2)n1 (configuration not stated),22.1
19,Cn1cnnc1C1CCCN(C(=O)c2ccc3c(c2)OCCO3)C1 (configuration not stated),-4.4
20,COc1cc2c(cc1OC)C(=O)C(Sc1nncn1C)C2 (configuration not stated),-4.34
21,O=C(NCCN1CCCCC1)c1nc(-c2ccc3cc[nH]c3c2)no1,-4.34
22,CC(=O)c1cccc(OCC(=O)NS(=O)(=O)c2ccc(C)s2)c1,28.6
23,COc1cc(CN2CCN(c3cccc(OC)c3)C(=O)C2)cc(OC)c1,-1.7

row,Structure (SMILES),cytotoxicity at 70.5 h [%]
1,Cn1ccnc1CN1C[C@H]2CN(S(C)(=O)=O)CCN2C1=O,-0.342
2,Cc1nc(CC(=O)N2CCCN(c3ccc(F)cc3)CC2)cs1,-3.38
3,CN1CC[C@]2(CN(CC3CCOCC3)C[C@H]2c2ccccc2)C1=O,-7.31
4,CN(C)C(=O)C1CCC2(CCN(Cc3cnn(C)c3)CC2)C1 (configuration not stated),-7.73
5,CC(=O)c1c(F)cccc1NCC(O)C(C)(C)C (configuration not stated),-11.2
6,Cc1nn(C)c2nc(N3CCCCC3c3cccnc3)sc12 (configuration not stated),-4.09
7,Cc1ccc(-c2nc(CN3C[C@@H](C)NC[C@@H]3C)c(C)o2)s1,-11.5
8,COc1cccc([C@@H]2CN(C(=O)c3ccc(C)cc3O)C[C@H]2C(=O)O)c1,-5.65
9,CCSc1cc(C(=O)NCc2ccccc2O)ccn1,-4.36
10,CN1CCCn2c(nc(CNS(=O)(=O)C3CC3)cc2=O)C1,-1.98
11,Cc1ccc2nc(C3CCCN3Cc3nnc(C)s3)[nH]c2c1 (configuration not stated),26.6
12,O=C(CNc1cc(-n2cnnn2)ccc1F)Nc1cc(F)ccc1F,-96.7
13,CN(Cc1nccn1CC(F)(F)F)C(=O)c1cccc(C#N)c1,-7.89
14,CC(=O)c1ccc(N2CCCC(CO)(Cc3ccccc3F)C2)nc1 (configuration not stated),20.4
15,CC(NC(=O)NCCCO)c1ccc2c(c1)NC(=O)CO2 (configuration not stated),-12
16,CCN1CCC2(CCC1=O)CN(c1ccnc(SC)n1)CCN2C (configuration not stated),3.52
17,CN(C)CCOCC1CN(C(=O)c2cccnc2)Cc2ccnn2C1 (configuration not stated),-6.34
18,CCNc1ncc(C(=O)NC2COC3(CCCC3)C2)cn1 (configuration not stated),-3.75
19,COc1cc(N2CCO[C@H]3[C@@H](Oc4cccnc4)CC[C@@H]32)ncn1,26.1
20,Cc1cnc(N2CCc3c(c(COc4cncnc4)nn3C)C2)nc1,-6.03
21,Cc1nn(C)c(Cl)c1C1CCCN1C(=O)c1ccc(C(N)=O)cn1 (configuration not stated),54.9
22,O=C(c1cccc(-n2cnnc2)c1)N1C[C@@H](O)[C@H](N2CCOCC2)C1,-1.32
23,COc1cccc(CNC2CCCOc3cc(C)ccc32)n1 (configuration not stated),-9.25

row,Structure (SMILES),cytotoxicity at 70.5 h [%]
1,CC(=O)N(C)Cc1ncn2c1CN(C(=O)CC1CC1)CCC2,-9.44
2,COCCN(Cc1ccc(F)cc1Cl)C(=O)c1c(C)noc1C,2.4
3,CCN1CC2(CCN(C(=O)C(C)Oc3cccc(Cl)c3)CC2)OC1=O (configuration not stated),-11.6
4,c1ccc(C2CCN(c3cncc(-n4cccn4)n3)CC2)cc1,-4.22
5,CCCN(CC)C(=O)c1nc2c(n1C)CCN(Cc1ccccc1)C2,-4.66
6,CC(C)OC(=O)N1CCCC2(CCC(=O)N(CCc3c[nH]cn3)C2)C1 (configuration not stated),-1.99
7,Cc1cnc(N2CCC[C@@H]3CN(S(C)(=O)=O)C[C@@H]32)nc1,-14.9
8,CN(C)c1cc2c(nn1)CCN(C(=O)c1cc3c(s1)CCC3)C2,8.88
9,CCC(C(=O)NCc1cc(N2CCOCC2)ncn1)n1cccn1 (configuration not stated),-1.38
10,Cc1ccc(OC2(C(=O)O)CCN(C/C=C/c3ccco3)CC2)cc1,-7.6
11,CC1CCc2nc(O)c(C(=O)NCCN(C)C)cc2C1 (configuration not stated),-18.1
12,Cc1nc(Cn2c3c(ccc2=O)CC(N)CC3)cs1 (configuration not stated),4.04
13,COCC(=O)N1CCC2(CCCN(Cc3ccc(Cl)cc3)CC2)CC1,44.6
14,Cc1ccc(O)c(CN(Cc2ccccc2)Cc2nccs2)n1,-4.83
15,O=C(Nc1ncnc2c1CCC2)c1ccc2c(c1)OCO2,1.01
16,O=C(Nc1ccccc1OCc1ccccn1)NC1CCOCC1,-8.37
17,O=C(NCc1ccccn1)[C@@H]1COC[C@H]2CNC[C@H]21,-12.9
18,CN1CCN(C(=O)c2n[nH]c3c2CN(Cc2nccs2)CC3)CC1,-12
19,COc1ccc(OC)c(C(C)NS(=O)(=O)c2cn(C)nc2C)c1 (configuration not stated),-3.29
20,COc1ccccc1CC1CCCN(CC(=O)N2CCOCC2)C1 (configuration not stated),-6.05
